According to ChEMBL document CHEMBL1201862, “PubChem BioAssay data set” (2004):
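Cells were grown in 96-well plates and exposed to each compound for 48 hours at five concentrations; endpoints were interpolated linearly between bracketing concentrations, or set to the highest concentration if not reached. The concentration for 50% growth inhibition is given as GI50.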 Active and inactive are the calls of the source. Rule as the data show it: active = GI50 up to about 1.1 µM and inactive = higher.

How the values were obtained:
Test in all cases: growth of human tumour cells (NCI), 48 h
[1] = test system: BT-549
[2] = test system: DU-145
[3] = test system: SNB-75
[4] = test system: MDA-MB-435
[5] = test system: HL-60
[6] = test system: LOX IMVI
[7] = test system: SF-295
[8] = test system: NCI-H460
[9] = test system: SK-MEL-28
[10] = test system: HCT-116
[11] = test system: IGROV-1
[12] = test system: NCI-H226
[13] = test system: K562
[14] = test system: SNB-19
[15] = test system: SK-OV-3
[16] = test system: OVCAR-8
[17] = test system: HOP-62
[18] = test system: UO-31
[19] = test system: RXF 393
[20] = test system: EKVX
[21] = test system: T47D
[22] = test system: 786-0
[23] = test system: HCC 2998
[24] = test system: OVCAR-5
[25] = test system: MOLT-4
[26] = test system: HCT-15
[27] = test system: CCRF-CEM
[28] = test system: CAKI-1
[29] = test system: MCF7
[30] = test system: KM12
[31] = test system: OVCAR-3
[32] = test system: NCI/ADR-RES
[33] = test system: UACC-257
[34] = test system: TK-10
[35] = test system: SN12C
[36] = test system: MDA-MB-231
[37] = test system: SF-268
[38] = test system: ACHN
[39] = test system: A549
[40] = test system: U-251
[41] = test system: HT-29
[42] = test system: UACC-62
[43] = test system: OVCAR-4
[44] = test system: SK-MEL-5
[45] = test system: COLO 205
[46] = test system: A498
[47] = test system: RPMI-8226
[48] = test system: NCI-H23
[49] = test system: MDA-N
[50] = test system: SW-620
[51] = test system: Malme-3M
[52] = test system: SF-539
[53] = test system: SK-MEL-2
[54] = test system: M14
[55] = test system: NCI-H522
[56] = test system: PC-3
[57] = test system: SR

For `COc1ccc2c3c1OC1C(OC)(OC)CC4(C=C2)CN(C)CCC314` (stereo unspecified), the GI50 [1] was > 100 µM (inactive), the GI50 [2] was > 100 µM (inactive) and the GI50 [3] was > 100 µM (inactive). For the same compound, the GI50 [4] was > 100 µM (inactive), the GI50 [5] was 20.3 µM (inactive) and the GI50 [6] was > 100 µM (inactive). The GI50 [7] was > 100 µM (inactive), the GI50 [8] was > 100 µM (inactive) and the GI50 [9] was > 100 µM (inactive). For the same compound, the GI50 [10] was > 100 µM (inactive), the GI50 [11] was > 100 µM (inactive) and the GI50 [12] was > 100 µM (inactive). The GI50 [13] was 41.9 µM (inactive), the GI50 [14] was > 100 µM (inactive) and the GI50 [15] was > 100 µM (inactive). For the same compound, the GI50 [16] was > 100 µM (inactive), the GI50 [17] was > 100 µM (inactive) and the GI50 [18] was > 100 µM (inactive). The GI50 [19] was > 100 µM (inactive), the GI50 [20] was > 100 µM (inactive) and the GI50 [21] was > 100 µM (inactive). The GI50 [22] was > 100 µM (inactive), the GI50 [23] was > 100 µM (inactive) and the GI50 [24] was > 100 µM (inactive). For the same compound, the GI50 [25] was > 100 µM (inactive), the GI50 [26] was over 100 µM and the GI50 [27] was 30.4 µM (inactive). The GI50 [28] was > 100 µM (inactive), the GI50 [29] was > 100 µM (inactive) and the GI50 [30] was > 100 µM (inactive). For the same compound, the GI50 [31] was > 100 µM (inactive), the GI50 [32] was > 100 µM (inactive) and the GI50 [33] was > 100 µM (inactive). For the same compound, the GI50 [34] was > 100 µM (inactive), the GI50 [35] was > 100 µM (inactive) and the GI50 [36] was > 100 µM (inactive). The GI50 [37] was > 100 µM (inactive), the GI50 [38] was > 100 µM (inactive) and the GI50 [39] was > 100 µM (inactive). The GI50 [40] was > 100 µM (inactive), the GI50 [41] was > 100 µM (inactive) and the GI50 [42] was > 100 µM (inactive). The GI50 [43] was > 100 µM (inactive), the GI50 [44] was > 100 µM (inactive) and the GI50 [45] was > 100 µM (inactive). For the same compound, the GI50 [46] was 28.6 µM (inactive), the GI50 [47] was > 100 µM (inactive) and the GI50 [48] was > 100 µM (inactive). For the same compound, the GI50 [49] was > 100 µM (inactive), the GI50 [50] was > 100 µM (inactive) and the GI50 [51] was > 100 µM (inactive). For the same compound, the GI50 [52] was > 100 µM (inactive).
`COc1ccc(C2C3=CONC3CC3CCCCC32)cc1` (stereo unspecified) was tested, and the GI50 [1] was > 100 µM (inactive), the GI50 [3] was > 100 µM (inactive) and the GI50 [4] was 47.9 µM (inactive). For the same compound, the GI50 [5] was 29.6 µM (inactive), the GI50 [6] was 69.7 µM (inactive) and the GI50 [8] was 33.8 µM (inactive). The GI50 [9] was 68.4 µM (inactive), the GI50 [53] was 33.8 µM (inactive) and the GI50 [10] was 29.8 µM (inactive). The GI50 [11] was > 100 µM (inactive), the GI50 [12] was > 100 µM (inactive) and the GI50 [13] was 39.4 µM (inactive). The GI50 [14] was 92.7 µM (inactive), the GI50 [16] was 85.7 µM (inactive) and the GI50 [17] was > 100 µM (inactive). The GI50 [18] was 38 µM (inactive), the GI50 [21] was 35.6 µM (inactive) and the GI50 [22] was 46.7 µM (inactive). For the same compound, the GI50 [23] was 18.5 µM (inactive), the GI50 [54] was 54.5 µM (inactive) and the GI50 [24] was > 100 µM (inactive). The GI50 [25] was 18.9 µM (inactive), the GI50 [27] was 42.1 µM (inactive) and the GI50 [28] was > 100 µM (inactive). For the same compound, the GI50 [29] was 12.8 µM (inactive), the GI50 [31] was 39.8 µM (inactive) and the GI50 [33] was 80.2 µM (inactive). The GI50 [55] was 29.6 µM (inactive), the GI50 [34] was > 100 µM (inactive) and the GI50 [37] was 79.4 µM (inactive). For the same compound, the GI50 [38] was 51.5 µM (inactive), the GI50 [39] was 33.8 µM (inactive) and the GI50 [40] was 46 µM (inactive). The GI50 [41] was > 100 µM (inactive), the GI50 [42] was 70.1 µM (inactive) and the GI50 [43] was 50.4 µM (inactive). The GI50 [44] was 50.8 µM (inactive), the GI50 [47] was 28.8 µM (inactive) and the GI50 [48] was 35.2 µM (inactive). For the same compound, the GI50 [49] was > 10 µM (inactive), the GI50 [56] was 30.6 µM (inactive) and the GI50 [50] was > 100 µM (inactive). The GI50 [57] was 41.9 µM (inactive) and the GI50 [51] was 43.3 µM (inactive).
